This test has as its system Candida albicans. Put plainly: Minimum inhibitory concentration (MIC). The format is cell-based.

In brackets after ≈: the same amount, converted by molar mass.

As for `C[C@@H]1[C@H](O)[C@@H](C)/C=C/C=C/C=C/C=C/C=C/C=C/C=C/[C@H](O[C@@H]2O[C@H](C)[C@@H](O)[C@H](N)[C@@H]2O)C[C@@H]2O[C@](O)(C[C@@H](O)C[C@@H](O)[C@H](O)CC[C@@H](O)C[C@@H](O)CC(=O)O[C@H]1C)C[C@H](O)[C@H]2C(=O)O` [AmB, amphotericin B], the “minimum inhibitory concentration (MIC)” value is 0.25 µg/mL (≈ 0.271 µM).

The values are drawn from patent US11389407B2, “Cochleates and methods of using the same to enhance tissue penetration of pharmacologically active agent” (priority 2015, dated 2022).
